Our source for the T/C values is PubChem BioAssay AID322 (DTP/NCI, 2004).

This assay deals with CD2F1 mice, P388/ADR leukemia ip, median survival T/C. Kind of assay: NCI In Vivo Anticancer Drug Screen. Data for tumor model P388 Leukemia resistant to Adriamycin; NSC 123127, Developed at Scr 08 (intraperitoneal) in CD2F1 (CDF1) mice. To be noted: endpoint: median survival time, higher = longer survival. The procedure:
The antitumor activity of compounds was measured in mice bearing transplantable tumors. Survival or tumor size were measured and the results are expressed as the measurement made in the treated group (T) divided by the measurement made in the vehicle treated control group (C). The tumor model used in this assay is P388 Leukemia resistant to Adriamycin; NSC 123127, Developed at Scr 08 (intraperitoneal) in CD2F1 (CDF1) mice

Molecules are shown by their SMILES. Values joined by “and” are separate entries in the source; they are usually repeats but may differ in a detail not shown here. Equal entries are not always repeated. Inconclusive results and toxic doses are left out.

On to `COc1cccc2c1C(=O)c1c(O)c3c(c(O)c1C2=O)C[C@@](O)(C(=O)CO)C[C@@H]3OC1CC(N)C(O)C(C)O1` (stereo not given in full), for which the T/C (dose: 0.38 mg/kg/injection, schedule: Q01DX009 (ip), vehicle: saline) is 118 % of control; the T/C (dose: 0.43 mg/kg/injection, schedule: Q01DX009 (ip), vehicle: saline) was 86 % of control; the T/C (dose: 0.75 mg/kg/injection, schedule: Q01DX009 (ip), vehicle: saline) is 109 % of control; the T/C (dose: 0.97 mg/kg/injection, schedule: Q04DX002 (ip), vehicle: saline) was 110 % of control; the T/C (dose: 0.97 mg/kg/injection, schedule: Q04DX003 (ip), vehicle: saline) is 98 % of control; the T/C (dose: 0.97 mg/kg/injection, schedule: Q04DX003 (ip), vehicle: water) is 100 % of control. Also, the T/C (dose: 1.2 mg/kg/injection, schedule: Q01DX009 (ip), vehicle: saline) is 98 % of control; the T/C (dose: 1.25 mg/kg/injection, schedule: Q01DX001 (ip), vehicle: saline) is 118 % of control; the T/C (dose: 1.5 mg/kg/injection, schedule: Q01DX009 (ip), vehicle: saline) is 108 % of control; the T/C (dose: 1.62 mg/kg/injection, schedule: Q04DX002 (ip), vehicle: saline) is 111 % of control; the T/C (dose: 1.62 mg/kg/injection, schedule: Q04DX003 (ip), vehicle: saline) is 107 % of control; the T/C (dose: 1.62 mg/kg/injection, schedule: Q04DX003 (ip), vehicle: water) is 100 % of control. In addition, the T/C by setting is: (dose: 2.0 mg/kg/injection, schedule: Q01DX009 (ip), vehicle: saline) 86 % of control; (dose: 2.16 mg/kg/injection, schedule: Q04DX003 (ip), vehicle: saline) 100 % of control; (dose: 2.5 mg/kg/injection, schedule: Q01DX001 (ip), vehicle: water) 124 % of control; (dose: 2.7 mg/kg/injection, schedule: Q04DX002 (ip), vehicle: saline) 117 % of control; (dose: 2.7 mg/kg/injection, schedule: Q04DX003 (ip), vehicle: saline) 100 % of control; (dose: 2.7 mg/kg/injection, schedule: Q04DX003 (ip), vehicle: water) 101 % of control. Besides, the T/C reads like this: (dose: 3.33 mg/kg/injection, schedule: Q01DX009 (ip), vehicle: saline) 90 % of control; (dose: 3.6 mg/kg/injection, schedule: Q04DX003 (ip), vehicle: saline) 102 % of control; (dose: 4.4 mg/kg/injection, schedule: Q01DX001 (ip), vehicle: saline) 120 % of control; (dose: 4.5 mg/kg/injection, schedule: Q04DX002 (ip), vehicle: saline) 120 % of control; (dose: 4.5 mg/kg/injection, schedule: Q04DX003 (ip), vehicle: saline) 102 % of control; (dose: 4.5 mg/kg/injection, schedule: Q04DX003 (ip), vehicle: water) 94 % of control. The T/C is 109 % of control (dose: 4.5 mg/kg/injection, schedule: Q04DX003 (iv), vehicle: saline); 109 % of control (dose: 5.0 mg/kg/injection, schedule: Q01DX001 (ip), vehicle: water); 106 % of control (dose: 6.0 mg/kg/injection, schedule: Q04DX003 (ip), vehicle: saline); 116 % of control (dose: 6.2 mg/kg/injection, schedule: Q01DX001 (ip), vehicle: saline); 152 % of control (dose: 6.7 mg/kg/injection, schedule: Q01DX005 (ip), vehicle: saline); 102 % of control (dose: 6.7 mg/kg/injection, schedule: Q04DX003 (iv), vehicle: saline). Also, the T/C by setting is: (dose: 7.5 mg/kg/injection, schedule: Q04DX002 (ip), vehicle: saline) 121 % of control; (dose: 7.5 mg/kg/injection, schedule: Q04DX003 (ip), vehicle: water) 92 % of control; (dose: 10.0 mg/kg/injection, schedule: Q01DX001 (ip), vehicle: water) 107 % of control; (dose: 10.0 mg/kg/injection, schedule: Q04DX003 (ip), vehicle: saline) 87 % of control; (dose: 10.0 mg/kg/injection, schedule: Q04DX003 (iv), vehicle: saline) 90 % of control; (dose: 12.5 mg/kg/injection, schedule: Q01DX001 (ip), vehicle: saline) 109 % of control and 119 % of control. Further, the T/C is 107 % of control (dose: 15.0 mg/kg/injection, schedule: Q01DX005 (ip), vehicle: saline); 88 % of control (dose: 15.0 mg/kg/injection, schedule: Q04DX003 (iv), vehicle: saline); 90 % of control (dose: 16.0 mg/kg/injection, schedule: Q04DX003 (ip), vehicle: saline); 88 % of control (dose: 20.0 mg/kg/injection, schedule: Q01DX001 (ip), vehicle: water).

As to `COc1cccc2c1C(=O)c1c(O)c3c(c(O)c1C2=O)C[C@@](O)(C(=O)CO)C[C@@H]3OC1CC(N2CCOCC2C#N)C(O)C(C)O1` (stereo not given in full), the T/C is, setting by setting: (dose: 9.38 micrograms/kg/injection, schedule: Q04DX003 (ip), vehicle: saline with Tween-80) 173 % of control and 175 % of control; (dose: 15.0 micrograms/kg/injection, schedule: Q04DX003 (iv), vehicle: saline + alcohol) 107 % of control; (dose: 22.0 micrograms/kg/injection, schedule: Q04DX003 (iv), vehicle: saline + alcohol) 99 % of control; (dose: 33.0 micrograms/kg/injection, schedule: Q04DX003 (iv), vehicle: saline + alcohol) 88 % of control; (dose: 37.5 micrograms/kg/injection, schedule: Q04DX003 (ip), vehicle: saline with Tween-80) 160 % of control.

On to `CN(C)[C@@H]1C(=O)C(C(=O)NCN2CCN(C(=N)N=C(N)N)CC2)=C(O)[C@@]2(O)C(=O)C3=C(O)c4c(O)cccc4[C@@](C)(O)[C@H]3C[C@@H]12`, for which the T/C was 113 % of control (dose: 0.62 mg/kg/injection, schedule: Q01DX005 (ip), vehicle: saline); 100 % of control (dose: 1.25 mg/kg/injection, schedule: Q01DX005 (ip), vehicle: saline); 97 % of control (dose: 1.8 mg/kg/injection, schedule: Q01DX005 (ip), vehicle: suspension in saline); 106 % of control (dose: 2.5 mg/kg/injection, schedule: Q01DX005 (ip), vehicle: saline); 115 % of control (dose: 3.0 mg/kg/injection, schedule: Q01DX005 (ip), vehicle: suspension in saline); 152 % of control (dose: 5.0 mg/kg/injection, schedule: Q01DX005 (ip), vehicle: saline). Further, the T/C (dose: 5.0 mg/kg/injection, schedule: Q01DX005 (ip), vehicle: suspension in saline) is 107 % of control.

`Nc1ccc2c(c1)CN1C(=O)c3ccccc3C1=N2`: the T/C was 215 % of control (2×) and 265 % of control (dose: 33.0 mg/kg/injection, schedule: Q01DX009 (ip), vehicle: saline with Tween-80); 270 % of control and 278 % of control and 297 % of control (dose: 50.0 mg/kg/injection, schedule: Q01DX009 (ip), vehicle: saline with Tween-80); 277 % of control and 297 % of control and 336 % of control (dose: 75.0 mg/kg/injection, schedule: Q01DX009 (ip), vehicle: saline with Tween-80); 102 % of control (dose: 75.0 mg/kg/injection, schedule: Q01DX009 (oral), vehicle: saline with Tween-80); 120 % of control (dose: 112.0 mg/kg/injection, schedule: Q01DX009 (ip), vehicle: saline with Tween-80); 104 % of control (dose: 112.0 mg/kg/injection, schedule: Q01DX009 (oral), vehicle: saline with Tween-80). The T/C reads like this: (dose: 169.0 mg/kg/injection, schedule: Q01DX009 (ip), vehicle: saline with Tween-80) 121 % of control; (dose: 169.0 mg/kg/injection, schedule: Q01DX009 (oral), vehicle: saline with Tween-80) 105 % of control; (dose: 252.2 mg/kg/injection, schedule: Q01DX009 (oral), vehicle: saline with Tween-80) 118 % of control; (dose: 378.2 mg/kg/injection, schedule: Q01DX009 (oral), vehicle: saline with Tween-80) 124 % of control.

As for `CC[C@@]1(O)C(=O)OCc2c1cc1n(c2=O)Cc2cc3ccccc3nc2-1`, the T/C was 161 % of control (dose: 1.5 mg/kg/injection, schedule: Q01DX005 (ip), vehicle: saline with Tween-80); 223 % of control (dose: 2.1 mg/kg/injection, schedule: Q01DX005 (ip), vehicle: saline with Tween-80); 200 % of control (dose: 3.0 mg/kg/injection, schedule: Q01DX005 (ip), vehicle: saline with Tween-80); 222 % of control (dose: 3.6 mg/kg/injection, schedule: Q01DX005 (ip), vehicle: saline with Tween-80); 216 % of control (dose: 6.0 mg/kg/injection, schedule: Q01DX005 (ip), vehicle: saline with Tween-80); 198 % of control and 232 % of control (dose: 6.7 mg/kg/injection, schedule: Q04DX002 (ip), vehicle: saline with Tween-80). Moreover, the T/C was 207 % of control and 232 % of control (dose: 10.0 mg/kg/injection, schedule: Q04DX002 (ip), vehicle: saline with Tween-80); 215 % of control and 236 % of control (dose: 15.0 mg/kg/injection, schedule: Q04DX002 (ip), vehicle: saline with Tween-80).
